# Values joined by “and” are separate entries in the source; they are usually repeats but may differ in a detail not shown here. Equal values may be shown once. Read-outs that look alike come from different tables or passages of the source.
# System: panel of 140 standard cancer cell lines
# Test: ProliFiler-140 cancer cell line screen (CellTiterGlo, 72 h)
# Format: cell-based
# Protocol: Incubations were performed for 72 h before automated viability readout with CellTiterGlo (Figure 8).
# End of Figure S11 (part 5 of 5): ProliFiler-140 cancer cell line screening for cytotoxicity of the prodrugs.
# 8-data-point dose response curves from CellTiter-Glo® viability readout.
# ProliFiler-140 cell line panel part V
smiles,measurement,setting,value
COc1cc2cc(C(=O)N3C[C@@H](CCl)c4c3cc(OC(=O)N3CCN(C(=O)CCC(=O)N5CCN(C)CC5)[C@H]5CSSC[C@H]53)c3ccccc43)[nH]c2c(OC)c1OC [P-SS66C-CBI-TMI],Reductive Activation Index,KG-1 a (Blood),5.16
same,Reductive Activation Index,Kato III (Stomach),7.4
same,Reductive Activation Index,LN229 (Brain),5.44
same,IC50,"LOU-NH91, read-out: IC50 [M] (ProliFiler-140), LOU-NH91 (Lung)",3.5e-08 M
same,Reductive Activation Index,LnCap (Prostate),33
same,Reductive Activation Index,M07e (Blood),4.26
same,IC50,"M-07e, read-out: IC50 [M] (ProliFiler-140), M07e (Blood)",3.25e-08 M
same,Reductive Activation Index,MCAS (Ovary),5.9 and 5.91
same,Reductive Activation Index,MDA MB 231 (Breast),5.44
same,Reductive Activation Index,MDA MB 435 (Skin),8.6
same,IC50,MDA MB 435 (Skin); read-out: IC50 [M] (ProliFiler-140),1.26e-07 M
same,Reductive Activation Index,MKN-1 (Stomach),11.1
same,Reductive Activation Index,MKN-45 (Stomach),5.93
same,Reductive Activation Index,Mia PaCA 2 (Pancreas),4.38
same,Reductive Activation Index,NALM-6 (Blood),22.62 and 23
same,Reductive Activation Index,NCI-H82 (Lung),8.5
same,Reductive Activation Index,NCI-H441 (Lung),5.81
same,Reductive Activation Index,NCI-H838 (Lung),10
same,Reductive Activation Index,NCI-H1563 (Lung),15
same,Reductive Activation Index,NCI-H1573 (Lung),12
same,Reductive Activation Index,NCI-H1703 (Lung),16
same,Reductive Activation Index,NCI-H1838 (Lung),11
same,IC50,"NCI-H2110, read-out: IC50 [M] (ProliFiler-140), NCI-H2110 (Lung)",1.8e-08 M
same,Reductive Activation Index,NCI-N87 (Stomach),15
same,Reductive Activation Index,OCI-AML5 (Blood),5.7 and 5.67
same,Reductive Activation Index,OCI-LY19 (Blood),5.41
same,Reductive Activation Index,OPM-2 (Blood),25.37
same,Reductive Activation Index,OV56 (Ovary),2.79
same,IC50,"OV56, read-out: IC50 [M] (ProliFiler-140), OV56 (Ovary)",7.25e-08 M
same,Reductive Activation Index,OVCAR-3 (Ovary),13
same,Reductive Activation Index,OVK18 (Ovary),4.38
same,IC50,"OVK18, read-out: IC50 [M] (ProliFiler-140), OVK18 (Ovary)",4.57e-08 M
same,Reductive Activation Index,PANC-1 (Pancreas),6.9
same,Reductive Activation Index,RERF-LC-Ad2 (Lung),5.5 and 5.54
same,IC50,"RERF-LC-Ad2, read-out: IC50 [M] (ProliFiler-140), RERF-LC-Ad2 (Lung)",1.4e-07 M
same,Reductive Activation Index,RL95-2 (Endometrium),5.93
same,Reductive Activation Index,SCLC-21H (Lung),6.16
same,Reductive Activation Index,SJSA-1 (Bone),3.87
same,Reductive Activation Index,SK-MEL-3 (Skin),6.6
same,Reductive Activation Index,SK-N-FI (Brain),4.91
same,Reductive Activation Index,SK-N-SH (Brain),6.5
same,Reductive Activation Index,SNU840 (Ovary),1.11
same,Reductive Activation Index,SNU-216 (Stomach),19.98 and 20
same,IC50,"SNU-216, read-out: IC50 [M] (ProliFiler-140), SNU-216 (Stomach)",9.22e-08 M
same,IC50,"SNU-840, read-out: IC50 [M] (ProliFiler-140), SNU840 (Ovary)",6.29e-08 M
same,Reductive Activation Index,SU-DHL-5 (Blood),19 and 19.50
same,Reductive Activation Index,SW480 (Colon),6.01
same,Reductive Activation Index,SW620 (Colon),4.55
same,Reductive Activation Index,SW948 (Colon),4.75
same,Reductive Activation Index,Saos-2 EC (Bone),3.52
same,Reductive Activation Index,SiHa (Ovary),5.41
same,Reductive Activation Index,T84 (Colon),5.69 and 5.7
same,Reductive Activation Index,T-47D (Breast),11
same,Reductive Activation Index,U2OS (Bone),4.10
same,Reductive Activation Index,U87MG (Brain),8.0
same,Reductive Activation Index,U118MG (Brain),2.11
same,Reductive Activation Index,U251MG (Brain),17
same,Reductive Activation Index,U-937 (Blood),6.40
same,Reductive Activation Index,ZR-75-1 (Breast),4.62 and 4.6
same,IC50,"read-out: IC50 [M] (ProliFiler-140), BEN (Lung)",5.3e-08 M
same,IC50,"read-out: IC50 [M] (ProliFiler-140), H4 (Brain)",1.39e-08 M
same,IC50,"read-out: IC50 [M] (ProliFiler-140), Hep3B2.1-7 (Liver)",1.7e-07 M
same,IC50,"read-out: IC50 [M] (ProliFiler-140), J82 (Bladder)",9.55e-08 M
same,IC50,"read-out: IC50 [M] (ProliFiler-140), KG-1 (Blood)",1.92e-07 M
same,IC50,"read-out: IC50 [M] (ProliFiler-140), LP-1 (Blood)",1e-07 M
same,IC50,"read-out: IC50 [M] (ProliFiler-140), MCAS (Ovary)",1.4e-07 M
same,IC50,"read-out: IC50 [M] (ProliFiler-140), PC3 (Prostate)",4.01e-08 M
same,IC50,"read-out: IC50 [M] (ProliFiler-140), PC-9 (Lung)",1.4e-08 M
same,IC50,"read-out: IC50 [M] (ProliFiler-140), RERF-LC-MS (Lung)",3.07e-08 M
same,IC50,"read-out: IC50 [M] (ProliFiler-140), RKO (Colon)",2.13e-08 M
same,IC50,"read-out: IC50 [M] (ProliFiler-140), SCH (Stomach)",1.5e-08 M
same,IC50,"read-out: IC50 [M] (ProliFiler-140), T84 (Colon)",1.6e-07 M
same,IC50,read-out: IC50 [M] (ProliFiler-140); 786-O (Kidney),2.9e-08 M
same,IC50,read-out: IC50 [M] (ProliFiler-140); A375 (Skin),5.5e-08 M
same,IC50,read-out: IC50 [M] (ProliFiler-140); A427 (Lung),4.42e-08 M
same,IC50,read-out: IC50 [M] (ProliFiler-140); A431 (Skin),2e-08 M
same,IC50,read-out: IC50 [M] (ProliFiler-140); A498 (Kidney),9.4e-08 M
same,IC50,read-out: IC50 [M] (ProliFiler-140); A549 (Lung),3.03e-08 M
same,IC50,read-out: IC50 [M] (ProliFiler-140); A2058 (Skin),1.09e-08 M
same,IC50,read-out: IC50 [M] (ProliFiler-140); A2780 (Ovary),8.13e-09 M
same,IC50,read-out: IC50 [M] (ProliFiler-140); AsPC-1 (Pancreas),2.62e-07 M
same,IC50,read-out: IC50 [M] (ProliFiler-140); BEN (Lung),5.35e-08 M
same,IC50,read-out: IC50 [M] (ProliFiler-140); BT-20 (Breast),1.22e-07 M

# — paper PMC10141580, “Cyclic Dichalcogenides Extend the Reach of Bioreductive Prodrugs to Harness Thiol/Disulfide Oxidoreductases: Applications to seco-Duocarmycins Targeting the Thioredoxin System” (ACS Central Science, 2023)
